“And” between values parts separate entries of the source, which are not always exact repeats. Equal values may be shown once. Read-outs that look alike come from different tables or passages of the source.
Key:
H1975 cells = assay: CCK-8 antiproliferation assay, H1975; details: for IC50: NCI-H1975, 48 h, read-out: IC50 (μM) H1975, CCK-8, 48 h, average ± SD of three independent experiments; for Inhibitory efficacy: H1975 cells
wild-type EGFR = wild-type EGFR (Homo sapiens, UniProt P00533); assay: EGFR kinase assay (ELISA); details: for inhibition at 0.0003 µM / Inhibition / inhibition at 0.003 µM / inhibition at 0.03 µM / inhibition at 0.3 µM / inhibition at 3 µM / inhibition at 30 µM: duplicate wells, calculated from A450; for IC50: IC50 (μM) EGFR, ELISA, 3 μmol/L ATP
Experimental: The kinase enzyme of EGFR was purchased from Carna Bioscience (Kobe, Japan). A total of 10 ng/ml anti phosphotyrosine (PY713) antibody (abcam, Cambridge Science Park, United Kingdom) was precoated in 96-well ELISA plates. […] Then, a total of 3 μmol/L ATP was added and the reaction was continued for 2 h. […] After incubation, the wells were washed with PBS and then incubated with horseradish peroxidase (HRP)-conjugated streptavidin. The wells were visualized using 3,3′,5,5′-tetramethylbenzidine (TMB), and chromogenic reaction was ended with 2 mol/L H2SO4, the absorbance was read with a multimode plate reader (PerkinElmer, United States) at 450 nm.

A549 cells = assay: CCK-8 antiproliferation assay, A549; details: for Inhibitory efficacy: A549 cells; for IC50: A549, 48 h, read-out: IC50 (μM) A549, CCK-8, 48 h, average ± SD of three independent experiments
PC-9 cells = assay: CCK-8 antiproliferation assay, PC-9; details: for IC50: PC-9, 48 h, read-out: IC50 (μM) PC-9; for inhibition at 4 µM: PC-9, read-out: Inhibitory efficacy, PC-9, 4uM, single repeats (Repeat 1-3), given as fraction; for inhibition at 8 µM: PC-9, read-out: Inhibitory efficacy, PC-9, 8uM, single repeats (Repeat 1-3), given as fraction; for inhibition at 16 µM: PC-9, read-out: Inhibitory efficacy, PC-9, 16uM, single repeats (Repeat 1-3), given as fraction; for Inhibitory efficacy: single repeats (Repeat 1-3), given as fraction
H460 cells = assay: CCK-8 antiproliferation assay, H460; details: for IC50 / inhibition at 1 µM / inhibition at 2 µM / inhibition at 4 µM / inhibition at 8 µM / inhibition at 16 µM: Homo sapiens; for IC50: NCI-H460, 48 h, read-out: IC50 (μM) H460, CCK-8, 48 h, average ± SD of three independent experiments
Experimental: The compounds were dissolved in DMSO to make a 20 μM stock solution and diluted to the concentration of working solutions with complete growth medium before administration.
Cells were seeded in 96-well plates: 3,000–5,000 cells/well in 100 ul. One day after seeding, the test compounds at concentration between 1.0 and 16.0 μ M or 0.1% DMSO (as control) were added to cells in triplicate. 48 h later, CCK-8 was added and incubated the plate for 1–4 h in the incubator. The absorbance at 450 nm were measured using a microplate reader (Bio-Tek).

[1] = 2uM, given as fraction, Repeat 1-3
[2] = 4uM, given as fraction, Repeat 1-3
[3] = 8uM, given as fraction, Repeat 1-3
[4] = 16uM, given as fraction, Repeat 1-3
[5] = Homo sapiens, A549, read-out: Inhibitory efficacy, A549 cells, 2uM, given as fraction, Repeat 1-3
[6] = Homo sapiens, A549, read-out: Inhibitory efficacy, A549 cells, 4uM, given as fraction, Repeat 1-3
[7] = Homo sapiens, A549, read-out: Inhibitory efficacy, A549 cells, 8uM, given as fraction, Repeat 1-3
[8] = Homo sapiens, A549, read-out: Inhibitory efficacy, A549 cells, 16uM, given as fraction, Repeat 1-3

Chain of wild-type EGFR (P00533 25-1210): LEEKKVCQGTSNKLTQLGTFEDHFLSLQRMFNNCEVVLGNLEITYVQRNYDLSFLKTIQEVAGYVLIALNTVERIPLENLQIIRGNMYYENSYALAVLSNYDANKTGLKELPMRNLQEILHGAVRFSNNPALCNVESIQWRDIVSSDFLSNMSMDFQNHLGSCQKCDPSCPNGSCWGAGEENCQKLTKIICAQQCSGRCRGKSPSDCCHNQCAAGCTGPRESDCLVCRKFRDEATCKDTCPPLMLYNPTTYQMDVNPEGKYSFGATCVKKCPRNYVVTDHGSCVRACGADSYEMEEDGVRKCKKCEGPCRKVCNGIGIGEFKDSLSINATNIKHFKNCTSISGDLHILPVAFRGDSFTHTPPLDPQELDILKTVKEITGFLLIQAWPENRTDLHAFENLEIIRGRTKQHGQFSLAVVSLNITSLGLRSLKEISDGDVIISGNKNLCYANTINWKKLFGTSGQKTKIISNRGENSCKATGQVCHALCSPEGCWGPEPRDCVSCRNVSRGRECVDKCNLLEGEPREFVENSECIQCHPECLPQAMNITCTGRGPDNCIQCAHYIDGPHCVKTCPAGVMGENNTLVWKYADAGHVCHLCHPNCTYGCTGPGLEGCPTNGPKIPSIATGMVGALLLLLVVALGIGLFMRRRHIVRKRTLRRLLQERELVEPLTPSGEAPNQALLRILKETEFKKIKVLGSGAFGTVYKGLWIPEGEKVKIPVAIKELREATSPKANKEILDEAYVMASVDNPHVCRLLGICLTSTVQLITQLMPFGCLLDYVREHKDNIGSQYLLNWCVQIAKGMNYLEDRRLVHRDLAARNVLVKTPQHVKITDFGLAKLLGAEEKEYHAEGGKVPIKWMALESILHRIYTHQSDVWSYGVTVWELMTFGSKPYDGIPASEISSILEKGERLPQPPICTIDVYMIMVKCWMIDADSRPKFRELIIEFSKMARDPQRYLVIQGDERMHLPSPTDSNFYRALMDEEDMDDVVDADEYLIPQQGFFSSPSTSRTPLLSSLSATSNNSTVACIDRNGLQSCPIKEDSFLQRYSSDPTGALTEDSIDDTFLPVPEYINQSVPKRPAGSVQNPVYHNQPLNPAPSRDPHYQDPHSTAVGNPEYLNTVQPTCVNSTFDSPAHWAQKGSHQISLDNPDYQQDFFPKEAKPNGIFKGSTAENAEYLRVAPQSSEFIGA

COCCOc1cc2ncnc(Nc3cccc(-c4cn(-c5ccccc5F)nn4)c3)c2cc1OCCOC [e6, [6,7-Bis-(2-methoxy-ethoxy)-quinazolin-4-yl]-{3-[1-(2-fluoro-phenyl)-1H-[1,2,3]triazol-4-yl]-phenyl}-amine]
IC50 (H1975 cells; Homo sapiens): 16.5 ± 3.53 µM
inhibition at 0.0003 µM (wild-type EGFR; 0.3 nM): 17.1%
Inhibition (wild-type EGFR; 0.3 nM, 0.0003 µM): 10.6583
inhibition at 0.003 µM (wild-type EGFR; 3 nM): 21.5%
Inhibition (wild-type EGFR; 3 nM, 0.003 µM): 11.5987
inhibition at 0.03 µM (wild-type EGFR; 30 nM): 26.3%
Inhibition (wild-type EGFR; 30 nM, 0.03 µM): 21.0031
inhibition at 0.3 µM (wild-type EGFR; 300 nM): 29.7%
Inhibition (wild-type EGFR; 300 nM, 0.3 µM): 21.3166
inhibition at 3 µM (wild-type EGFR; 3000 nM): 70.9%
Inhibition (wild-type EGFR; 3000 nM, 3 µM): 70.8464
inhibition at 30 µM (wild-type EGFR; 30000 nM): 91.8%
Inhibition (wild-type EGFR; 30000 nM, 30 µM): 93.4169
IC50 (wild-type EGFR): 0.69 µM
Inhibitory efficacy (A549 cells; [1]): 0.2224 and 0.3459
Inhibitory efficacy (A549 cells; [2]): 0.572 and 0.5248
Inhibitory efficacy (A549 cells; [3]): 0.6524 and 0.6253
Inhibitory efficacy (A549 cells; [4]): 0.6986 and 0.7076
IC50 (A549 cells; Homo sapiens): 4.88 ± 0.54 µM
inhibition at 2 µM (A549 cells; [5]): 25.8%
inhibition at 4 µM (A549 cells; [6]): 45.7%
inhibition at 8 µM (A549 cells; [7]): 63.5%
inhibition at 16 µM (A549 cells; [8]): 69.8%
IC50 (PC-9 cells; Homo sapiens): 3.27 ± 0.14 µM
inhibition at 2 µM (PC-9 cells; Homo sapiens, PC-9, read-out: Inhibitory efficacy, PC-9, 2uM, single repeats (Repeat 1-3), given as fraction): 37.3%
inhibition at 4 µM (PC-9 cells; Homo sapiens): 61.7%
inhibition at 8 µM (PC-9 cells; Homo sapiens): 77.6%
inhibition at 16 µM (PC-9 cells; Homo sapiens): 85%
Inhibitory efficacy (PC-9 cells; PC-9, 2uM, 2 µM): 0.401 and 0.3548
Inhibitory efficacy (PC-9 cells; PC-9, 4uM, 4 µM): 0.5712 and 0.6591
Inhibitory efficacy (PC-9 cells; PC-9, 8uM, 8 µM): 0.783 and 0.7626
Inhibitory efficacy (PC-9 cells; PC-9, 16uM, 16 µM): 0.8422 and 0.8588
melting point: 83 to 86 °C
Inhibitory efficacy (H460 cells; H460 cells, 1uM, given as fraction, Repeat 1-3): 0.0882 and 0.09728
Inhibitory efficacy (H460 cells; H460 cells, 2uM, given as fraction, Repeat 1-3): 0.2957 and 0.2477
Inhibitory efficacy (H460 cells; H460 cells, 4uM, given as fraction, Repeat 1-3): 0.4663 and 0.4358
Inhibitory efficacy (H460 cells; H460 cells, 8uM, given as fraction, Repeat 1-3): 0.4163 and 0.4008
Inhibitory efficacy (H460 cells; H460 cells, 16uM, given as fraction, Repeat 1-3): 0.4274 and 0.4066
IC50 (H460 cells): 18.5 ± 2 µM
inhibition at 1 µM (H460 cells; NCI-H460, read-out: Inhibitory efficacy, H460 cells, 1uM, given as fraction, Repeat 1-3): 14.7%
inhibition at 2 µM (H460 cells; NCI-H460, read-out: Inhibitory efficacy, H460 cells, 2uM, given as fraction, Repeat 1-3): 33.2%
inhibition at 4 µM (H460 cells; NCI-H460, read-out: Inhibitory efficacy, H460 cells, 4uM, given as fraction, Repeat 1-3): 39.8%
inhibition at 8 µM (H460 cells; NCI-H460, read-out: Inhibitory efficacy, H460 cells, 8uM, given as fraction, Repeat 1-3): 42.1%
inhibition at 16 µM (H460 cells; NCI-H460, read-out: Inhibitory efficacy, H460 cells, 16uM, given as fraction, Repeat 1-3): 44.7%

COCCOc1cc2ncnc(Nc3cccc(-c4cn(-c5ccc(F)cc5)nn4)c3)c2cc1OCCOC [e7, [6,7-Bis-(2-methoxy-ethoxy)-quinazolin-4-yl]-{3-[1-(4-fluoro-phenyl)-1H-[1,2,3]triazol-4-yl]-phenyl}-amine]
Inhibitory efficacy (H1975 cells; [1]): 0.2223 and 0.2165
Inhibitory efficacy (H1975 cells; [2]): 0.3132 and 0.3374
Inhibitory efficacy (H1975 cells; [3]): 0.4723 and 0.4708
Inhibitory efficacy (H1975 cells; [4]): 0.4151 and 0.4664
IC50 (H1975 cells; Homo sapiens): 13.1 ± 4.41 µM
inhibition at 2 µM (H1975 cells; Homo sapiens, NCI-H1975, read-out: Inhibitory efficacy, H1975 cells, 2uM, given as fraction, Repeat 1-3): 29.3%
inhibition at 4 µM (H1975 cells; Homo sapiens, NCI-H1975, read-out: Inhibitory efficacy, H1975 cells, 4uM, given as fraction, Repeat 1-3): 38.9%
inhibition at 8 µM (H1975 cells; Homo sapiens, NCI-H1975, read-out: Inhibitory efficacy, H1975 cells, 8uM, given as fraction, Repeat 1-3): 50.2%
inhibition at 16 µM (H1975 cells; Homo sapiens, NCI-H1975, read-out: Inhibitory efficacy, H1975 cells, 16uM, given as fraction, Repeat 1-3): 54.1%
inhibition at 0.0003 µM (wild-type EGFR; 0.3 nM): 6.05%
Inhibition (wild-type EGFR; 0.3 nM, 0.0003 µM): 3.39
inhibition at 0.003 µM (wild-type EGFR; 3 nM): 8.07%
Inhibition (wild-type EGFR; 3 nM, 0.003 µM): 4.0678
inhibition at 0.03 µM (wild-type EGFR; 30 nM): 9.08%
Inhibition (wild-type EGFR; 30 nM, 0.03 µM): 6.78
inhibition at 0.3 µM (wild-type EGFR; 300 nM): 10.9%
Inhibition (wild-type EGFR; 300 nM, 0.3 µM): 7.627
inhibition at 3 µM (wild-type EGFR; 3000 nM): 13.4%
Inhibition (wild-type EGFR; 3000 nM, 3 µM): 20.339
inhibition at 30 µM (wild-type EGFR; 30000 nM): 61%
Inhibition (wild-type EGFR; 30000 nM, 30 µM): 71.3559
IC50 (wild-type EGFR): 14.7 µM
Inhibitory efficacy (A549 cells; 1uM, given as fraction, Repeat 1-3): 0.3498 and 0.2466
Inhibitory efficacy (A549 cells; [1]): 0.3315 and 0.2534
Inhibitory efficacy (A549 cells; [2]): 0.2813 and 0.2524
Inhibitory efficacy (A549 cells; [3]): 0.2486 and 0.3238
Inhibitory efficacy (A549 cells; [4]): 0.291 and 0.2842
IC50 (A549 cells; Homo sapiens): > 100 µM
inhibition at 1 µM (A549 cells; Homo sapiens, A549, read-out: Inhibitory efficacy, A549 cells, 1uM, given as fraction, Repeat 1-3): 27.5%
inhibition at 2 µM (A549 cells; [5]): 24.8%
inhibition at 4 µM (A549 cells; [6]): 30.8%
inhibition at 8 µM (A549 cells; [7]): 29.7%
inhibition at 16 µM (A549 cells; [8]): 37.2%
IC50 (PC-9 cells; Homo sapiens): 11.5 ± 1.57 µM
inhibition at 4 µM (PC-9 cells; Homo sapiens): 21.3%
inhibition at 8 µM (PC-9 cells; Homo sapiens): 41.9%
inhibition at 16 µM (PC-9 cells; Homo sapiens): 62.5%
Inhibitory efficacy (PC-9 cells; PC-9, 4uM, 4 µM): 0.2652 and 0.1935
Inhibitory efficacy (PC-9 cells; PC-9, 8uM, 8 µM): 0.448 and 0.4014
Inhibitory efficacy (PC-9 cells; PC-9, 16uM, 16 µM): 0.5556 and 0.543
melting point: 88 to 91 °C
Inhibitory efficacy (H460 cells; H460, 1uM, single repeats (Repeat 1-3), given as fraction, 1 µM): 0.233 and 0.152
Inhibitory efficacy (H460 cells; H460, 2uM, single repeats (Repeat 1-3), given as fraction, 2 µM): 0.3048 and 0.3792
Inhibitory efficacy (H460 cells; H460, 4uM, single repeats (Repeat 1-3), given as fraction, 4 µM): 0.2364 and 0.2572
Inhibitory efficacy (H460 cells; H460, 8uM, single repeats (Repeat 1-3), given as fraction, 8 µM): 0.2581 and 0.2146
Inhibitory efficacy (H460 cells; H460, 16uM, single repeats (Repeat 1-3), given as fraction, 16 µM): 0.3099 and 0.4184
IC50 (H460 cells): > 100 µM
inhibition at 1 µM (H460 cells; NCI-H460, read-out: Inhibitory efficacy, H460, 1uM, single repeats (Repeat 1-3), given as fraction): 13.2%
inhibition at 2 µM (H460 cells; NCI-H460, read-out: Inhibitory efficacy, H460, 2uM, single repeats (Repeat 1-3), given as fraction): 30.4%
inhibition at 4 µM (H460 cells; NCI-H460, read-out: Inhibitory efficacy, H460, 4uM, single repeats (Repeat 1-3), given as fraction): 30.3%
inhibition at 8 µM (H460 cells; NCI-H460, read-out: Inhibitory efficacy, H460, 8uM, single repeats (Repeat 1-3), given as fraction): 29.6%
inhibition at 16 µM (H460 cells; NCI-H460, read-out: Inhibitory efficacy, H460, 16uM, single repeats (Repeat 1-3), given as fraction): 26.7%
